pIC50: −log10 of the molar value.

This experiment relates to PC3 cells. In words: NAMPT Cell Proliferation Assay. The conditions noted are these: Homo sapiens, PC-3, 120 h, 5 days incubation, cell viability by Cell Titer Glo. Type of experiment: cell-based. In short, it runs like this: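 Proliferation of PC3 cells treated 5 days with a 10-fold compound series (top 10 μM) was quantified by Cell Titer Glo luminescence; IC50s were fitted from percent inhibition.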
`CC(C)(C)OC(=O)N1CCC(c2ccc(NC(=O)Cc3ccn4ccnc4c3)cc2)CC1` [Example 900, tert-butyl 4-{4-[(imidazo[1,2-a]pyridin-7-ylacetyl)amino]phenyl}piperidine-1-carboxylate] had a pIC50 of 7.76. With `CC(C)(C)OC(=O)N1CCC(c2ccc(NC(=O)Cc3ccc4nccn4c3)cc2)CC1` [Example 862, tert-butyl 4-{4-[(imidazo[1,2-a]pyridin-6-ylacetyl)amino]phenyl}piperidine-1-carboxylate] the figure was 9.11; with `O=C(CC1CCCC1)Nc1ccc(C(=O)NCc2cn3ccnc3cn2)c(F)c1` [Example 908, 4-[(cyclopentylacetyl)amino]-2-fluoro-N-(imidazo[1,2-a]pyrazin-6-ylmethyl)benzamide], 7.95; with `CC(C)C(=O)N1CCC(c2ccc(NC(=O)Cc3ccn4ccnc4c3)cc2)CC1` [Example 903, 2-(imidazo[1,2-a]pyridin-7-yl)-N-{4-[1-(2-methylpropanoyl)piperidin-4-yl]phenyl}acetamide], 7.45. Under `CC(C)(C(=O)Nc1ccc(C(=O)NCc2ccn3ccnc3c2)cc1)c1ccccc1` [Example 896, N-(imidazo[1,2-a]pyridin-7-ylmethyl)-4-[(2-methyl-2-phenylpropanoyl)amino]benzamide] stands 5.80; under `CCC(CC)C(=O)N1CCC(c2ccc(C(=O)NCc3ccn4ccnc4c3)cc2)CC1` [Example 917, 4-[1-(2-ethylbutanoyl)piperidin-4-yl]-N-(imidazo[1,2-a]pyridin-7-ylmethyl)benzamide], 8.17; under `O=C(NCc1ccn2ccnc2c1)Nc1ccc(C2CCN(C(=O)c3ccc4occc4c3)CC2)cc1` [Example 1144, 1-{4-[1-(1-benzofuran-5-ylcarbonyl)piperidin-4-yl]phenyl}-3-(imidazo[1,2-a]pyridin-7-ylmethyl)urea], 8.02. The compound `Cn1cc2c(C(=O)N3CCC(c4ccc(NC(=O)NCc5ccn6ccnc6c5)cc4)CC3)cccc2n1` [Example 1149, 1-(imidazo[1,2-a]pyridin-7-ylmethyl)-3-(4-{1-[(2-methyl-2H-indazol-4-yl)carbonyl]piperidin-4-yl}phenyl)urea] had a pIC50 of 8.58. Turning to `CC(C)n1ccc(C(=O)N2CCC(c3ccc(C(=O)NCc4ccn5ccnc5c4)cc3)CC2)n1` [Example 959, N-(imidazo[1,2-a]pyridin-7-ylmethyl)-4-(1-{[1-(propan-2-yl)-1H-pyrazol-3-yl]carbonyl}piperidin-4-yl)benzamide], the pIC50 was 8.01.

The compound `O=C(CC1CCCC1)Nc1ccc(C(=O)NCc2ccc3nccn3n2)cc1` [Example 856, 4-[(cyclopentylacetyl)amino]-N-(imidazo[1,2-b]pyridazin-6-ylmethyl)benzamide] had a pIC50 of 6.18. With `O=C(NCc1ccn2ccnc2c1)Nc1ccc(C2CCN(C(=O)c3cnnc4ccccc34)CC2)cc1` [Example 1031, 1-{4-[1-(cinnolin-4-ylcarbonyl)piperidin-4-yl]phenyl}-3-(imidazo[1,2-a]pyridin-7-ylmethyl)urea] the figure was 8.11; with `COc1ccccc1CC(=O)N1CCC(c2ccc(NC(=O)NCc3ccn4ccnc4c3)cc2)CC1` [Example 947, 1-(imidazo[1,2-a]pyridin-7-ylmethyl)-3-(4-{1-[(2-methoxyphenyl)acetyl]piperidin-4-yl}phenyl)urea], 8.48; with `CC1(Cn2cc(-c3ccc(C(=O)NCc4ccn5ccnc5c4)s3)cn2)CCN(C(=O)CCNC(=O)CSC[C@H](N)C(=O)O)CC1` [Example 1166, S-{2-[(3-{4-[(4-{5-[(imidazo[1,2-a]pyridin-7-ylmethyl)carbamoyl]thiophen-2-yl}-1H-pyrazol-1-yl)methyl]-4-methylpiperidin-1-yl}-3-oxopropyl)amino]-2-oxoethyl}-L-cysteine], 7.58. Under `O=C(NCc1ccn2ccnc2c1)c1ccc(C2CCN(C(=O)c3cnc4c(c3)CCCC4)CC2)cc1` [Example 986, N-(imidazo[1,2-a]pyridin-7-ylmethyl)-4-[1-(5,6,7,8-tetrahydroquinolin-3-ylcarbonyl)piperidin-4-yl]benzamide] stands 7.67; under `CC(C)C(=O)N1CCC(c2ccc(NC(=O)NCc3ccn4ccnc4c3)c(F)c2)CC1` [Example 1078, 1-{2-fluoro-4-[1-(2-methylpropanoyl)piperidin-4-yl]phenyl}-3-(imidazo[1,2-a]pyridin-7-ylmethyl)urea], 8.12; under `CCC1CCCCN1C(=O)C(=O)N1CCC(c2ccc(NC(=O)NCc3ccn4ccnc4c3)cc2)CC1` (stereo not drawn) [Example 1150, 1-(4-{1-[(2-ethylpiperidin-1-yl)(oxo)acetyl]piperidin-4-yl}phenyl)-3-(imidazo[1,2-a]pyridin-7-ylmethyl)urea], 7.19. Under `Cn1nc2c(c1C(=O)N1CCC(c3ccc(NC(=O)NCc4ccn5ccnc5c4)cc3)CC1)CCCC2` [Example 1014, 1-(imidazo[1,2-a]pyridin-7-ylmethyl)-3-(4-{1-[(2-methyl-4,5,6,7-tetrahydro-2H-indazol-3-yl)carbonyl]piperidin-4-yl}phenyl)urea] stands 8.68; under `COc1cc(C(=O)N2CCC(c3ccc(C(=O)NCc4ccn5ccnc5c4)cc3)CC2)ncc1C` [Example 1100, N-(imidazo[1,2-a]pyridin-7-ylmethyl)-4-{1-[(4-methoxy-5-methylpyridin-2-yl)carbonyl]piperidin-4-yl}benzamide], 8.06. For the compound `O=C(NCc1ccc2ncnn2c1)c1ccc(C2CCN(C(=O)C3CCC(F)(F)CC3)CC2)s1` [Example 848, 5-{1-[(4,4-difluorocyclohexyl)carbonyl]piperidin-4-yl}-N-([1,2,4]triazolo[1,5-a]pyridin-6-ylmethyl)thiophene-2-carboxamide], the negative-log IC50 (pIC50) was 7.53.

In the case of `Cc1oc(C(C)C)cc1C(=O)N1CCC(c2ccc(C(=O)NCc3ccn4ccnc4c3)cc2)CC1` [Example 1064, N-(imidazo[1,2-a]pyridin-7-ylmethyl)-4-(1-{[2-methyl-5-(propan-2-yl)furan-3-yl]carbonyl}piperidin-4-yl)benzamide], the pIC50 is 8.39. Under `O=C(NCc1ccn2ccnc2c1)c1ccc(C2CCN(C(=O)c3cccnc3Cl)CC2)cc1` [Example 913, 4-{1-[(2-chloropyridin-3-yl)carbonyl]piperidin-4-yl}-N-(imidazo[1,2-a]pyridin-7-ylmethyl)benzamide] stands 7.84; under `CC(C)c1ncncc1C(=O)N1CCC(c2ccc(NC(=O)NCc3ccn4ccnc4c3)cc2)CC1` [Example 1140, 1-(imidazo[1,2-a]pyridin-7-ylmethyl)-3-[4-(1-{[4-(propan-2-yl)pyrimidin-5-yl]carbonyl}piperidin-4-yl)phenyl]urea], 8.23. Under `O=C(NCc1ccn2ccnc2c1)c1ccc(C2CCN(C(=O)COc3ccc(F)cc3)CC2)cc1` [Example 918, 4-{1-[(4-fluorophenoxy)acetyl]piperidin-4-yl}-N-(imidazo[1,2-a]pyridin-7-ylmethyl)benzamide] stands 6.63; under `CCc1ccc(C(=O)N2CCC(c3ccc(NC(=O)NCc4ccn5ccnc5c4)cc3)CC2)nc1` [Example 1125, 1-(4-{1-[(5-ethylpyridin-2-yl)carbonyl]piperidin-4-yl}phenyl)-3-(imidazo[1,2-a]pyridin-7-ylmethyl)urea], 8.32.

The values are drawn from US9187472B2 (AbbVie Inc., priority 2012, dated 2015).
